Literature values in patent publication US20110152177A1, “Functional Feed Composition” (priority 2008, published 2011).

Tests used:
V. anguillarum = conditions: oral administration of PG at 0.2 and 2 mg/kg diet
Vibrio anguillarium = conditions: lower and higher doses reported to increase mortalities

**Q.** For peptidoglycan, which “disease resistance” value (V. anguillarum) is on record?
**A.** enhances the disease resistance

**Q.** And the “optimal dose of peptidoglycan in diet” value (Vibrio anguillarium)?
**A.** 4 g kg^−1 diet
